Experimental data published in patent US11286263B2, “Macrocyclic fluorine substituted indole derivatives” (The Broad Institute, Inc., priority 2017, dated 2022).
Values joined by “and” are separate entries in the source; they are usually repeats but may differ in a detail not shown here. Equal entries are not always repeated. Structures can show the parent of a compound that is named as a salt. Where two headings read alike, the source gives them in different places.

How the values were obtained:
A2780 = assay: Antiproliferation assay A2780 (Assay 7); format: cell-based; conditions: A2780 cells, CellTiter-Glo, single determinations, read-out: IC50 Antiproli A2780
Procedure, shortened: (§1)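 Cells plated in treatment plates plus a day 0 reference plate; incubated 72 h at 37 °C; CellTiter-Glo added, 10 min incubation, luminescence read; day 0 plate read at time zero.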

SUDHL5 [1] = assay: Induction of cytotoxicity, SUDHL5 (Assay 6); conditions: read-out: IC50 Cytotox SUDHL5 [M] (median), SUDHL5 cells, 5 h, CellTiter-Glo
Procedure: (§3) In principle, compounds that induce apoptosis will concomitantly induce cell cytotoxicity. Therefore, cytotoxicity assays were run in parallel in SUDHL5 and SUDHL10 cells.
(§4) The different cell lines were plated in culture medium (RPMI 1640 [GIBCO #22400-089] supplemented with 10% Fetal Bovine Serum) at a density of 3,300 cells in 30 μl/well in a sterile, solid black, flat bottom, polystyrene, TC-treated 384-well microplate (Corning #3571) using Multidrop Combi Reagent Dispenser. As a control, medium without cells was also added to the plate. Cells were incubated in a humidified incubator at 37° C. overnight. On the next day, the cells were treated with compounds (stock solution, 10 mM in DMSO) using the HP D300 Digital Dispenser in a concentration range of 3.3×10e-5 M (33 μM) to 5×10e-9 M (5 nM) in a single-dot curve with at least 16 dilutions and a DMSO concentration of 0.33%. Rim wells were excluded. The cells were incubated for 5 h hours in a humidified incubator at 37° C. After this incubation, 30 μl of CellTiter-Glo® Luminescent Cell Viability reagent (Promega, G7573) was added to each well using the Multidrop Combi Reagent Dispenser, followed by 15 min incubation on a shaker at room temperature. Finally, luminescence was read at 0.1 ms, with a gain of 3000 using the PHERAstar FS microplate reader (BMG Labtech).
(§5) The Bella DRC Master Sheet was used to calculate IC50s, with fixed CI=0 and C0=1.

AMO-1 = assay: Antiproliferation assay AMO-1 (Assay 7); format: cell-based; conditions: AMO-1 cells, CellTiter-Glo, single determinations, read-out: IC50 Antiproli AMO-1
Procedure, shortened: as §1

SUDHL10 [2] = assay: Induction of caspase-3/7 activity, SUDHL10 (Assay 4); format: cell-based; conditions: SUDHL10 cells
Procedure, shortened: (§2)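 DLBCL lines treated with compounds for 3 h at 37° C.; caspase-3/7 activity read by Caspase-Glo 3/7 luminescence. Medium-only background subtracted; EC50 fitted with bottom fixed at 1 and top set to reference compound's maximal induction.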

SUDHL5 [3] = assay: Antiproliferation assay SUDHL5 (Assay 7); format: cell-based; conditions: SUDHL5 cells, CellTiter-Glo, median, read-out: IC50 Antiproli SUDHL5 [M] (median)
Procedure, shortened: as §1

SUDHL10 [4] = assay: Induction of cytotoxicity, SUDHL10 (Assay 6); conditions: read-out: IC50 Cytotox SUDHL10 [M] (median), SUDHL10 cells, 5 h, CellTiter-Glo
Procedure: as §3, §4, §5

SUDHL5 [5] = assay: Induction of caspase-3/7 activity, SUDHL5 (Assay 4); format: cell-based; conditions: SUDHL5 cells
Procedure, shortened: as §2

[6] = Homo sapiens, SU-DHL10, 3 h, Caspase-Glo 3/7, median

IC50 (A2780; 72 h, listed as 02)	IC50 (A2780; Homo sapiens, A2780, 72 h) [nM]	EC50 (SUDHL10 [2]; [6]) [nM]	IC50 (SUDHL5 [3]; Homo sapiens, SU-DHL-5, 72 h) [M]	EC50 (SUDHL5 [5]; Homo sapiens, SU-DHL-5, 3 h, Caspase-Glo 3/7, median) [nM]	IC50 (A2780; 72 h, listed as 03)	IC50 (SUDHL5 [3]; 72 h) [M]	EC50 (SUDHL5 [5]; 3 h, Caspase-Glo 3/7, median) [nM]	IC50 (A2780; 72 h, listed as 07)	EC50 (SUDHL10 [2]; 3 h, Caspase-Glo 3/7, median) [nM]	IC50 (A2780; 72 h) [nM]	SMILES	IC50 (SUDHL5 [1]; Homo sapiens, SU-DHL-5, 5 h) [M]	IC50 (AMO-1; 72 h, listed as 02) [nM]	IC50 (AMO-1; Homo sapiens, AMO1, 72 h) [nM]	IC50 (SUDHL10 [4]; Homo sapiens, SU-DHL10, 5 h) [M]	IC50 (SUDHL5 [1]) [M]	IC50 (SUDHL10 [4]) [M]	IC50 (AMO-1; 72 h)
12200 nM and 14500 nM	13000	1300	1.4e-06	600							Cc1c2c(nn1C)COCCCCn1c(C(=O)O)c(CCCOc3cccc4ccccc34)c3ccc(F)c-2c31 (racemic) [Example 2, (rac)-4-fluoro-2,3-dimethyl-7-[3-(naphthalen-1-yloxy)propyl]-2,10,11,12,13,15-hexahydro-pyrazolo[4′,3′:9,10][1,6]oxazacycloundecino[8,7,6-hi]indole-8-carboxylic acid]	1e-06	1910	2460	1.6e-06			
		1300			23800 nM and 17600 nM and 15300 nM	6.4e-07	650				Cc1c2c(nn1C)COCCCCn1c(C(=O)O)c(CCCOc3cccc4ccccc34)c3ccc(F)c-2c31 (single isomer, unassigned; enantiomer 1) [Example 3, 4-fluoro-2,3-dimethyl-7-[3-(naphthalen-1-yloxy)propyl]-2,10,11,12,13,15-hexahydropyrazolo-[4′,3′:9,10][1,6]oxazacycloundecino[8,7,6-hi]indole-8-carboxylic acid-N-ethylethanamine salt (enantiomer 1)]			2000	1.1e-06	7.7e-07		
						7.5e-07	370	8840 nM and 13200 nM	1000		CCc1c2c(nn1C)COCCCCn1c(C(=O)O)c(CCCOc3cccc4ccccc34)c3ccc(F)c-2c31 (single isomer, unassigned; enantiomer 1) [Example 7, 3-ethyl-4-fluoro-2-methyl-7-{3-[(naphthalen-1-yl)oxy]propyl}-2,10,11,12,13,15-hexahydro-pyrazolo[4′,3′:9,10][1,6]oxazacycloundecino[8,7,6-hi]indole-8-carboxylic acid-N-ethylethanamine salt (enantiomer 1)]			1910		4.6e-07	1.3e-06	
						2.9e-07	340		680	4110	Cc1c2c(nn1C)COCCCCn1c(C(=O)O)c(CCCOc3cccc4cc(F)ccc34)c3ccc(F)c-2c31 (single isomer, unassigned; enantiomer 1) [Example 13, 4-fluoro-7-{3-[(6-fluoronaphthalen-1-yl)oxy]propyl}-2,3-dimethyl-2,10,11,12,13,15-hexahydro-pyrazolo[4′,3′:9,10][1,6]oxazacycloundecino[8,7,6-hi]indole-8-carboxylic acid-N-ethylethanamine salt (enantiomer 1)]					3.9e-07	8e-07	747 nM and 564 nM
	3880					2.7e-07	210		380		CCc1c2c(nn1C)COCCCCn1c(C(=O)O)c(CCCOc3cccc4cc(F)ccc34)c3ccc(F)c-2c31 (single isomer, unassigned; enantiomer 1) [Example 22, 3-ethyl-4-fluoro-7-{3-[(6-fluoronaphthalen-1-yl)oxy]propyl}-2-methyl-2,10,11,12,13,15-hexahydropyrazolo[4′,3′:9,10][1,6]oxazacycloundecino[8,7,6-hi]indole-8-carboxylic acid-N-ethylethanamine salt (enantiomer 1)]					3.3e-07	5.5e-07	
						6.2e-07	660		1600		CCc1c2c(nn1C)COCCCCn1c(C(=O)O)c(CCCOc3ccc(F)c4ccccc34)c3ccc(F)c-2c31 (single isomer, unassigned; enantiomer 1) [Example 27, 3-ethyl-4-fluoro-7-{3-[(4-fluoronaphthalen-1-yl)oxy]propyl}-2-methyl-2,10,11,12,13,15-hexahydropyrazolo[4′,3′:9,10][1,6]oxazacycloundecino[8,7,6-hi]indole-8-carboxylic acid-N-ethylethanamine salt (enantiomer 1)]					1e-06	1.8e-06	1330 nM and 2530 nM
						6.8e-07	560		940	4840	CCc1nn(C)c2c1-c1c(F)ccc3c(CCCOc4cccc5cc(F)ccc45)c(C(=O)O)n(c13)CCCCOC2 (single isomer, unassigned; enantiomer 1) [Example 39, 3-ethyl-4-fluoro-7-{3-[(6-fluoronaphthalen-1-yl)oxy]propyl}-1-methyl-1,10,11,12,13,15-hexahydropyrazolo[4′,3′:9,10][1,6]oxazacycloundecino[8,7,6-hi]indole-8-carboxylic acid-N-ethylethanamine salt (enantiomer 1)]					6.2e-07	1e-06	1720 nM
						1.4e-06	2700		11000		CCc1c2c(nn1C)COCCCCn1c(C(=O)O)c(CCCOc3cccc4cc(F)ccc34)c3ccc(F)c-2c31 (single isomer, unassigned; enantiomer 2) [Example 23, 3-ethyl-4-fluoro-7-{3-[(6-fluoronaphthalen-1-yl)oxy]propyl}-2-methyl-2,10,11,12,13,15-hexahydropyrazolo[4′,3′:9,10][1,6]oxazacycloundecino[8,7,6-hi]indole-8-carboxylic acid-N-ethylethanamine salt (enantiomer 2)]					3.2e-06	9e-06	
